Results as given in patent publication US9328083B2, “2-aminated methylene or 2-esterified methylene tanshinone derivatives, and preparation method and application thereof” (HANGZHOU BENSHENG PHARMACEUTICAL CO., LTD., priority 2011, dated 2016).
Values after ≈ are worked out from the molar mass of the structure shown.

Tests used:
[1] = tested on: K562/adr (drug-resistant, chronic myeloid leukemia, CML); experiment: MTT growth inhibition of leukemia cells, 72 h; format: cell-based, human; details: Homo sapiens, K562/Adr; for IC50: read-out: IC50; for IC90: read-out: IC90
Excerpt: (§1) Leukemia cell lines: leukemia cell lines: K562/adr (drug-resistant, chronic myeloid leukemia, CML), NB4 (acute promyelocytic leukemia, AML), Kasumi-1 (acute myeloid leukemia M2 type, AML-M2), and Jurkat (acute lymphoblastic leukemia, ALL), all of which are donated by Cancer Research Institute of Zhejiang University, China; and H9 (acute lymphoblastic leukemia, ALL), which is purchased from China Center for Type Culture Collection (CCTCC).
(§2) The standard sample of tanshinone I (TA) and the 2-aminated methylene or 2-esterified methylene tanshinone I derivatives of the present invention are sufficiently dissolved with dimethylsulfoxide to produce a stock solution of 10 mg/mL, which is refrigerated at 4° C. and stored in dark, and is diluted with a cell culture medium to the desired concentration prior to experimentation.
(§3) Obtaining 6000 well-growing leukemia cells and inoculating them into wells of a 96-well cell culture plate. The culture medium is the RPMI-1640 cell culture medium containing 10% fetal bovine serum. After adding on the second day the 2-aminated methylene or 2-esterified methylene tanshinone I derivatives of different concentrations and mixing uniformly, placing the plate in a carbon dioxide cell incubator (5% CO2) at 37° C. and incubated for 72 hours. Then the viable cell concentration is determined by MTT method.

[2] = tested on: NB4 (acute promyelocytic leukemia, AML); experiment: MTT growth inhibition of leukemia cells, 72 h; format: cell-based, human; details: for IC50 / IC90: Homo sapiens, NB4, 72 h; for IC50: read-out: IC50; for IC90: read-out: IC90
Excerpt: as §1, §2, §3

[3] = tested on: Kasumi-1 (acute myeloid leukemia M2 type, AML-M2); experiment: MTT growth inhibition of leukemia cells, 72 h; format: cell-based, human; details: Homo sapiens, Kasumi-1, 72 h; for IC50: read-out: IC50; for IC90: read-out: IC90
Excerpt: as §1, §2, §3

[4] = tested on: H9 (acute lymphoblastic leukemia, ALL); experiment: MTT growth inhibition of leukemia cells, 72 h; format: cell-based, human; details: for IC50 / IC90: Homo sapiens, H9, 72 h; for IC50: read-out: IC50; for IC90: read-out: IC90
Excerpt: as §1, §2, §3

[5] = tested on: Jurkat (acute lymphoblastic leukemia, ALL); experiment: MTT growth inhibition of leukemia cells, 72 h; format: cell-based, human; details: Homo sapiens, 72 h; for IC50: read-out: IC50; for IC90: read-out: IC90
Excerpt: as §1, §2, §3

[6] = tested on: RPMI8226 (multiple myeloma); experiment: MTT growth inhibition of multiple myeloma cells, 72 h; format: cell-based, human; details: Homo sapiens, RPMI 8226, 72 h; for IC50: read-out: IC50; for IC90: read-out: IC90
Method: Myeloma cell lines: RPMI8226 (multiple myeloma), purchased from Fuxiang Bio-tech Co. Ltd., Shanghai, China.
as §2
as §3, with “myeloma” for “leukemia”, “cells as above” for “cells”, “1640” for “RPMI-1640”, “adding” for “adding on the second day”

MG63 (osteosarcoma) = experiment: MTT growth inhibition of human solid tumor cells, 72 h; format: cell-based; details: Homo sapiens, MG-63, 72 h; for IC50: read-out: IC50; for IC90: read-out: IC90
Method: (§4) Hep-2 (laryngeal carcinoma), A549 (human lung cancer), CaES-17 (esophageal cancer cell), PC-3 (prostate cancer), CNE (nasopharyngeal carcinoma cell), and SK-OV-3 (ovarian cancer cell), all of which are purchased from China Center For Type Culture Collection; RKO (human colon adenocarcinoma cell), MGC 803 (human gastric cancer cell), MG63 (osteosarcoma) and U87 MG (malignant glioma cell), all of which are purchased from Fuxiang Bio-tech Co. Ltd., Shanghai, China; PANC-1 (pancreatic cancer), Hep G2 (human liver cancer cell), Becap37 (human breast cancer cell) and Hela (human cervical cancer cell), all of which are donated by Cancer Research Institute of Zhejiang University, China.
as §2
(§5) Obtaining 4000 well-growing human solid tumor cells and inoculating them into wells of a 96-well cell culture plate. The culture medium is DMEM High Glucose cell culture medium containing 10% fetal bovine serum. The plate is placed in a carbon dioxide cell incubator (5% CO2) at 37° C. and incubated for 24 hours. After adding the 2-aminated methylene or 2-esterified methylene tanshinone I derivatives of different concentrations and mixing uniformly, the plate is placed in a carbon dioxide cell incubator (5% CO2) at 37° C. and incubated for 72 hours. Then the viable cell concentration is determined by the MTT method.

[7] = tested on: MGC 803 (human gastric cancer cell); experiment: as above; format: cell-based; details: Homo sapiens, MGC-803, 72 h; for IC50: read-out: IC50; for IC90: read-out: IC90
Method: as §4, §2, §5

[8] = tested on: Hep-2 (laryngeal carcinoma); experiment: as above; format: cell-based; details: Homo sapiens, HEp-2, 72 h; for IC50: read-out: IC50; for IC90: read-out: IC90
Method: as §4, §2, §5

[9] = tested on: Becap37 (human breast cancer cell); experiment: as above; format: cell-based; details: Homo sapiens, Becap-37, 72 h; for IC50: read-out: IC50; for IC90: read-out: IC90
Method: as §4, §2, §5

[10] = tested on: SK-OV-3 (ovarian cancer cell); experiment: as above; format: cell-based; details: Homo sapiens, SK-OV-3, 72 h; for IC50: read-out: IC50; for IC90: read-out: IC90
Method: as §4, §2, §5

[11] = tested on: Hep G2 (human liver cancer cell); experiment: as above; format: cell-based; details: Homo sapiens, HepG2, Hep G2, 72 h; for IC50: read-out: IC50; for IC90: read-out: IC90
Method: as §4, §2, §5

[12] = tested on: RKO (human colon adenocarcinoma cell); experiment: as above; format: cell-based; details: Homo sapiens; for IC50: read-out: IC50; for IC90: read-out: IC90
Method: as §4, §2, §5

[13] = tested on: CaES-17 (esophageal cancer cell); experiment: as above; format: cell-based; details: Homo sapiens, CaEs17, CaEs-17, 72 h; for IC50: read-out: IC50; for IC90: read-out: IC90
Method: as §4, §2, §5

A549 (human lung cancer) = experiment: as above; format: cell-based; details: Homo sapiens, A549, 72 h; for IC50: read-out: IC50; for IC90: read-out: IC90
Method: as §4, §2, §5

[14] = tested on: U87 MG (malignant glioma cell); experiment: as above; format: cell-based; details: for IC50 / IC90: Homo sapiens, U-87 MG, U87-MG, 72 h; for IC50: read-out: IC50; for IC90: read-out: IC90
Method: as §4, §2, §5

[15] = tested on: Hela (human cervical cancer cell); experiment: as above; format: cell-based; details: Homo sapiens, HeLa, 72 h; for IC50: read-out: IC50; for IC90: read-out: IC90
Method: as §4, §2, §5

[16] = tested on: CNE (nasopharyngeal carcinoma cell); experiment: as above; format: cell-based; details: Homo sapiens; for IC50: read-out: IC50; for IC90: read-out: IC90
Method: as §4, §2, §5

[17] = tested on: PANC-1 (pancreatic cancer); experiment: as above; format: cell-based; details: Homo sapiens, PANC-1, 72 h; for IC50: read-out: IC50; for IC90: read-out: IC90
Method: as §4, §2, §5

PC-3 (prostate cancer) = experiment: as above; format: cell-based; details: Homo sapiens, PC-3, 72 h; for IC50: read-out: IC50; for IC90: read-out: IC90
Method: as §4, §2, §5

Cc1c(CN(C)CCOC(=O)OC(C)C)oc2c1C(=O)C(=O)c1c-2ccc2c(C)cccc12 [BS-TA-63]
IC50 [1]: 1.26 µg/mL (≈ 2.8 µM) | IC90 [1]: 4.6 µg/mL (≈ 10.2 µM) | IC50 [2]: 3.73 µg/mL (≈ 8.3 µM) | IC90 [2]: 10.4 µg/mL (≈ 23.1 µM) | IC50 [3]: 1.48 µg/mL (≈ 3.29 µM) | IC90 [3]: 3.89 µg/mL (≈ 8.65 µM) | IC50 [4]: 3.75 µg/mL (≈ 8.34 µM) | IC90 [4]: 15.3 µg/mL (≈ 34.1 µM) | IC50 [5]: 3 µg/mL (≈ 6.67 µM) | IC90 [5]: 7.56 µg/mL (≈ 16.8 µM) | IC50 [6]: 7.76 µg/mL (≈ 17.3 µM) | IC90 [6]: 16 µg/mL (≈ 35.6 µM) | IC50 (MG63 (osteosarcoma)): 14.1 µg/mL (≈ 31.4 µM) | IC90 (MG63 (osteosarcoma)): > 16 µg/mL | IC50 [7]: 14.9 µg/mL (≈ 33.1 µM) | IC90 [7]: > 16 µg/mL | IC50 [8]: 3.39 µg/mL (≈ 7.54 µM) | IC90 [8]: 22.4 µg/mL (≈ 49.9 µM) | IC50 [9]: 16 µg/mL (≈ 35.6 µM) | IC90 [9]: > 16 µg/mL | IC50 [10]: > 16 µg/mL | IC90 [10]: > 16 µg/mL | IC50 [11]: 15.7 µg/mL (≈ 34.8 µM) | IC90 [11]: > 16 µg/mL | IC50 [12]: 1.86 µg/mL (≈ 4.14 µM) | IC90 [12]: 17.6 µg/mL (≈ 39.2 µM) | IC50 [13]: > 16 µg/mL | IC90 [13]: > 16 µg/mL | IC50 (A549 (human lung cancer)): 6.5 µg/mL (≈ 14.5 µM) | IC90 (A549 (human lung cancer)): 23.4 µg/mL (≈ 52.1 µM) | IC50 [14]: 15.8 µg/mL (≈ 35.2 µM) | IC90 [14]: > 16 µg/mL | IC50 [15]: 8.77 µg/mL (≈ 19.5 µM) | IC90 [15]: > 16 µg/mL | IC50 [16]: > 16 µg/mL | IC90 [16]: > 16 µg/mL | IC50 [17]: 4.92 µg/mL (≈ 10.9 µM) | IC90 [17]: 20.9 µg/mL (≈ 46.4 µM) | IC50 (PC-3 (prostate cancer)): 5.83 µg/mL (≈ 13 µM) | IC90 (PC-3 (prostate cancer)): 18.9 µg/mL (≈ 42 µM)

Cc1c(CNCCO)oc2c1C(=O)C(=O)c1c-2ccc2c(C)cccc12 [BS-TA-65]
IC50 [1]: 0.16 µg/mL (≈ 0.458 µM) | IC90 [1]: 1.08 µg/mL (≈ 3.09 µM) | IC50 [2]: 0.04 µg/mL (≈ 0.114 µM) | IC90 [2]: 0.08 µg/mL (≈ 0.229 µM) | improvement of anti-NB4 activity as compared with tanshinone I ([2]; NB4, vs tanshinone I): 24 fold | IC50 [3]: 0.074 µg/mL (≈ 0.212 µM) | IC90 [3]: 0.12 µg/mL (≈ 0.343 µM) | improvement of anti-H9 activity as compared with tanshinone I ([4]; H9, vs tanshinone I): 27 fold | IC50 [4]: 0.13 µg/mL (≈ 0.372 µM) | IC90 [4]: 0.41 µg/mL (≈ 1.17 µM) | IC50 [5]: 0.17 µg/mL (≈ 0.487 µM) | IC90 [5]: 0.47 µg/mL (≈ 1.35 µM) | IC50 [6]: 0.125 µg/mL (≈ 0.358 µM) | IC90 [6]: 0.25 µg/mL (≈ 0.716 µM) | IC50 (MG63 (osteosarcoma)): 0.31 µg/mL (≈ 0.887 µM) | IC90 (MG63 (osteosarcoma)): 0.98 µg/mL (≈ 2.8 µM) | IC50 [7]: 0.15 µg/mL (≈ 0.429 µM) | IC90 [7]: 1.7 µg/mL (≈ 4.87 µM) | IC50 [8]: 0.78 µg/mL (≈ 2.23 µM) | IC90 [8]: 2.38 µg/mL (≈ 6.81 µM) | IC50 [9]: 0.27 µg/mL (≈ 0.773 µM) | IC90 [9]: 0.68 µg/mL (≈ 1.95 µM) | IC50 [10]: 0.86 µg/mL (≈ 2.46 µM) | IC90 [10]: 1.91 µg/mL (≈ 5.47 µM) | IC50 [11]: 0.31 µg/mL (≈ 0.887 µM) | IC90 [11]: 1.5 µg/mL (≈ 4.29 µM) | IC50 [12]: 0.037 µg/mL (≈ 0.106 µM) | IC90 [12]: 0.29 µg/mL (≈ 0.83 µM) | IC50 [13]: 0.3 µg/mL (≈ 0.859 µM) | IC90 [13]: 0.81 µg/mL (≈ 2.32 µM) | IC50 (A549 (human lung cancer)): 0.979 µg/mL (≈ 2.8 µM) | IC90 (A549 (human lung cancer)): 3.52 µg/mL (≈ 10.1 µM) | IC50 [14]: 0.15 µg/mL (≈ 0.429 µM) | IC90 [14]: 0.35 µg/mL (≈ 1 µM) | improvement of anti-U87 MG activity as compared with tanshinone I ([14]; U87 MG, vs tanshinone I): more than 42 fold | IC50 [15]: 0.42 µg/mL (≈ 1.2 µM) | IC90 [15]: 1 µg/mL (≈ 2.86 µM) | IC50 [16]: 0.6 µg/mL (≈ 1.72 µM) | IC90 [16]: 1.8 µg/mL (≈ 5.15 µM) | IC50 [17]: 0.26 µg/mL (≈ 0.744 µM) | IC90 [17]: 1.9 µg/mL (≈ 5.44 µM) | IC50 (PC-3 (prostate cancer)): 0.44 µg/mL (≈ 1.26 µM) | IC90 (PC-3 (prostate cancer)): 3.58 µg/mL (≈ 10.2 µM)
